Data as given in PMC5584945, “Evaluation of robenidine analog NCL195 as a novel broad-spectrum antibacterial agent” (PLoS ONE, 2017).
≈ marks a conversion by molar mass, not a printed value. Where two headings read alike, the source gives them in different places.

What was measured:
[1] = Microsomal metabolic stability; type: in vitro ADME; conditions: for microsomal CLint at 0.4 μg/ml / half-life at 0.4 μg/ml: liver microsomes, pH 7.4; for microsomal CLint at 0.4 μg/ml: read-out: CLINT; for Predicted EH: hepatic extraction ratio; for Predicted CLblood: microsome-predicted; for half-life at 0.4 μg/ml: 0.4 μg/ml compound, 0.4 mg/ml protein, NADPH
Protocol: The metabolic stability assay was performed by incubating 0.4 μg/ml of each test compound with human and mouse liver microsomes (Xenotech, Lot# 1210057 and 1310211, respectively) suspended in 0.1 M pH 7.4 phosphate buffer at 37°C and 0.4 mg/ml protein concentration. The metabolic reaction was initiated by the addition of an NADPH-regenerating system (i.e. NADPH is the cofactor required for CYP450-mediated metabolism) and quenched at various time points over a 60 min incubation period by the addition of acetonitrile containing diazepam as internal standard. Control samples (containing no NADPH) were included (and quenched at 2, 30 and 60 min) to monitor for potential degradation in the absence of cofactor. Test compound concentration vs time data were fitted to an exponential decay function to determine the first-order rate constant for substrate depletion. This was used to calculate a degradation half-life (T1/2), in vitro intrinsic clearance (CLINT), microsome-predicted blood clearance (CLblood) and a microsome-predicted hepatic extraction ratio (EH) according to the in vitro half-life method of Obach[53].

S. aureus = test: MIC, broth micro-dilution (CLSI); type: cell-based, Staphylococcus aureus; conditions: for MIC / MIC50 / MIC90: Staphylococcus aureus
[2] = S2 Table isolates, absence of FBS

With Cc1ccc(/C=N/Nc2cc(N/N=C/c3ccc(C)cc3)nc(N)n2)cc1 [NCL195, 4,6-bis(2-((E)-4-methylbenzylidene)hydrazinyl)pyrimidin-2-amine] the microsomal CLint at 0.4 μg/ml ([1]; human) was < 7 µL/min/mg, the “Predicted EH” value ([1]; human) was <0.22 and the “Predicted CLblood” value ([1]; human) was <5 mL/min/kg. The half-life at 0.4 μg/ml ([1]; human) was > 4.12 h, the half-life at 0.4 μg/ml ([1]; mouse) was > 4.12 h and the microsomal CLint at 0.4 μg/ml ([1]; mouse) was < 7 µL/min/mg. For the same compound, the “Predicted EH” value ([1]; mouse) was <0.13, the “Predicted CLblood” value ([1]; mouse) was <16 mL/min/kg and the “Fold increase of MIC range in the presence of 10% FBS” value (S. aureus; 10% FBS versus no FBS) was 4 fold. It also gave an MIC range (S. aureus; 23 isolates) of 1 to 2 µg/mL, an MIC range (S. aureus; S2 Table isolates, 10% FBS) of 4 to 8 µg/mL and an MIC range (S. aureus; [2]) of 1 to 2 µg/mL. For the same compound, the “Fold increase in MIC in the presence of serum” value (S. aureus; S. aureus 49775, human, horse or mouse serum) was 4 fold, the MIC (S. aureus; ATCC 12600 / MSSA, ATCC12600 [Xen29] (MSSA), 10% FBS) was 4 µg/mL (≈ 11.1 µM) and the MIC (S. aureus; ATCC 12600 / MSSA, ATCC12600 [Xen29] (MSSA), absence of FBS) was 1 µg/mL (≈ 2.78 µM). For the same compound, the MIC (S. aureus; ATCC 29213 / MSSA, ATCC29213 MSSA (ST5), 10% FBS, read-out: MIC) was 8 µg/mL (≈ 22.3 µM), the MIC (S. aureus; ATCC 29213 / MSSA, ATCC29213 MSSA (ST5), absence of FBS, read-out: MIC) was 2 µg/mL (≈ 5.56 µM) and the MIC (S. aureus; ATCC 49775 / MSSA, ATCC 49775 (MSSA), 10% FBS, read-out: MIC) was 8 µg/mL (≈ 22.3 µM). The MIC (S. aureus; ATCC 49775 / MSSA, ATCC 49775 (MSSA), absence of FBS, read-out: MIC) was 2 µg/mL (≈ 5.56 µM), the MIC (S. aureus; IRISH 1 – HA-EMRSA (ST8), 10% FBS, read-out: MIC) was 8 µg/mL (≈ 22.3 µM) and the MIC (S. aureus; IRISH 1 – HA-EMRSA (ST8), absence of FBS, read-out: MIC) was 2 µg/mL (≈ 5.56 µM). For the same compound, the MIC (S. aureus; IRISH 2 – HA-EMRSA (ST8), 10% FBS, read-out: MIC) was 4 µg/mL (≈ 11.1 µM), the MIC (S. aureus; IRISH 2 – HA-EMRSA (ST8), absence of FBS, read-out: MIC) was 1 µg/mL (≈ 2.78 µM) and the MIC (S. aureus; MRSA / USA300, USA 300 - MRSA (ST8), 10% FBS, read-out: MIC) was 8 µg/mL (≈ 22.3 µM). It also gave an MIC (S. aureus; MRSA / USA300, USA 300 - MRSA (ST8), absence of FBS, read-out: MIC) of 2 µg/mL (≈ 5.56 µM), an MIC (S. aureus; MRSA, AUS2-MRSA (ST239), 10% FBS, read-out: MIC) of 8 µg/mL (≈ 22.3 µM) and an MIC (S. aureus; MRSA, AUS2-MRSA (ST239), absence of FBS, read-out: MIC) of 2 µg/mL (≈ 5.56 µM). For the same compound, the MIC (S. aureus; MRSA, AUS3-MRSA (ST239), 10% FBS, read-out: MIC) was 4 µg/mL (≈ 11.1 µM), the MIC (S. aureus; MRSA, AUS3-MRSA (ST239), absence of FBS, read-out: MIC) was 1 µg/mL (≈ 2.78 µM) and the MIC (S. aureus; MRSA, Classic–HA-MRSA (ST250), 10% FBS, read-out: MIC) was 8 µg/mL (≈ 22.3 µM). It also gave an MIC (S. aureus; MRSA, Classic–HA-MRSA (ST250), absence of FBS, read-out: MIC) of 2 µg/mL (≈ 5.56 µM), an MIC (S. aureus; MRSA, NY JAPAN – HA MRSA (ST5), 10% FBS, read-out: MIC) of 4 µg/mL (≈ 11.1 µM) and an MIC (S. aureus; MRSA, NY JAPAN – HA MRSA (ST5), absence of FBS, read-out: MIC) of 1 µg/mL (≈ 2.78 µM). The MIC (S. aureus; MRSA, ST398–CA-MRSA-V (ST398), 10% FBS, read-out: MIC) was 8 µg/mL (≈ 22.3 µM), the MIC (S. aureus; MRSA, ST398–CA-MRSA-V (ST398), absence of FBS, read-out: MIC) was 2 µg/mL (≈ 5.56 µM) and the MIC (S. aureus; MRSA, WA2–CA-MRSA (ST78), 10% FBS, read-out: MIC) was 4 µg/mL (≈ 11.1 µM). For the same compound, the MIC (S. aureus; MRSA, WA2–CA-MRSA (ST78), absence of FBS, read-out: MIC) was 1 µg/mL (≈ 2.78 µM), the MIC (S. aureus; MRSA, WA3–CA-MRSA (ST5), 10% FBS, read-out: MIC) was 4 µg/mL (≈ 11.1 µM) and the MIC (S. aureus; MRSA, WA3–CA-MRSA (ST5), absence of FBS, read-out: MIC) was 1 µg/mL (≈ 2.78 µM). The MIC (S. aureus; MRSA, WA84–CA-MRSA (ST45), 10% FBS, read-out: MIC) was 4 µg/mL (≈ 11.1 µM), the MIC (S. aureus; MRSA, WA84–CA-MRSA (ST45), absence of FBS, read-out: MIC) was 1 µg/mL (≈ 2.78 µM) and the MIC50 (S. aureus; S2 Table isolates, 10% FBS) was 8 µg/mL (≈ 22.3 µM). For the same compound, the MIC90 (S. aureus; S2 Table isolates, 10% FBS) was 8 µg/mL (≈ 22.3 µM), the MIC50 (S. aureus; [2]) was 2 µg/mL (≈ 5.56 µM) and the MIC90 (S. aureus; [2]) was 2 µg/mL (≈ 5.56 µM). For the same compound, the MIC (S. aureus; TAIWAN PVL+ – CA-cMRSA (ST59), 10% FBS, read-out: MIC) was 4 µg/mL (≈ 11.1 µM), the MIC (S. aureus; TAIWAN PVL+ – CA-cMRSA (ST59), absence of FBS, read-out: MIC) was 1 µg/mL (≈ 2.78 µM) and the MIC (S. aureus; UK 15 PVL+ – HA-EMRSA (ST22), 10% FBS, read-out: MIC) was 8 µg/mL (≈ 22.3 µM). For the same compound, the MIC (S. aureus; UK 15 PVL+ – HA-EMRSA (ST22), absence of FBS, read-out: MIC) was 2 µg/mL (≈ 5.56 µM), the MIC (S. aureus; UK 15 – HA-EMRSA (ST22), 10% FBS, read-out: MIC) was 8 µg/mL (≈ 22.3 µM) and the MIC (S. aureus; UK 15 – HA-EMRSA (ST22), absence of FBS, read-out: MIC) was 2 µg/mL (≈ 5.56 µM). The MIC (S. aureus; UK 16 – HA- EMRSA (ST36), 10% FBS, read-out: MIC) was 4 µg/mL (≈ 11.1 µM), the MIC (S. aureus; UK 16 – HA- EMRSA (ST36), absence of FBS, read-out: MIC) was 1 µg/mL (≈ 2.78 µM) and the MIC (S. aureus; UK 17 – HA-EMRSA (ST247), 10% FBS, read-out: MIC) was 8 µg/mL (≈ 22.3 µM). It also gave an MIC (S. aureus; UK 17 – HA-EMRSA (ST247), absence of FBS, read-out: MIC) of 2 µg/mL (≈ 5.56 µM).
